In brackets after ≈: the same amount, converted by molar mass. Read-outs that look alike come from different tables or passages of the source.
Experiments:
EphA2 = biological target: T1, EphA2 (Homo sapiens, UniProt P29317); assay: Kinome profiler screen; format: biochemical; details: at 20,000 nM inhibitor; kinase activity remaining
T1 construct: purchased Millipore KinaseProfiler

[1] = biological target: T2, PI3 Kinase (p110δ/p85α)(m) (Mus musculus, UniProt O35904); assay: Kinome profiler screen; format: biochemical; details: at 20,000 nM inhibitor; kinase activity remaining
T2 construct: purchased Millipore KinaseProfiler

GSK3α = biological target: T3, GSK3α (Homo sapiens, UniProt P49840); assay: Kinome profiler screen; format: biochemical; details: at 20,000 nM inhibitor; kinase activity remaining
T3 construct: purchased Millipore KinaseProfiler

JAK2 = biological target: T4, JAK2 (Homo sapiens, UniProt O60674); assay: Kinome profiler screen; format: biochemical; details: at 20,000 nM inhibitor; kinase activity remaining
T4 construct: purchased Millipore KinaseProfiler

PKCθ = biological target: T5, PKCθ (Homo sapiens, UniProt Q04759); assay: Kinome profiler screen; format: biochemical; details: at 20,000 nM inhibitor; kinase activity remaining
T5 construct: purchased Millipore KinaseProfiler

VRK2 = biological target: T6, VRK2 (Homo sapiens, UniProt Q86Y07); assay: Kinome profiler screen; format: biochemical; details: at 20,000 nM inhibitor; kinase activity remaining
T6 construct: purchased Millipore KinaseProfiler
T6 sequence (Q86Y07 whole entry): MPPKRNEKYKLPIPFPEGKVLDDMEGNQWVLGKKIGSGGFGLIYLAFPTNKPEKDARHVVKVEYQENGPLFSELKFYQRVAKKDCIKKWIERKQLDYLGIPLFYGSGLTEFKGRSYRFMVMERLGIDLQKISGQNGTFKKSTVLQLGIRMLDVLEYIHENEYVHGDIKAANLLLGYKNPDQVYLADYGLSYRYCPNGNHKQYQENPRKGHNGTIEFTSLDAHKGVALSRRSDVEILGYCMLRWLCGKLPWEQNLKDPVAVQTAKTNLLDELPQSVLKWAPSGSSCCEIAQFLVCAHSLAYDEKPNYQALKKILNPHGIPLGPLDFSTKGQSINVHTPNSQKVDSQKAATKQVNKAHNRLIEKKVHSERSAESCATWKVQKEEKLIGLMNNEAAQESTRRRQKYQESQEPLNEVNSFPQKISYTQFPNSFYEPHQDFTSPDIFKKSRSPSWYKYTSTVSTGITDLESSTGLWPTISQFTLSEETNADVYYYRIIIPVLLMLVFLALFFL

cKit(V654A) = biological target: T7, cKit(V654A) (Homo sapiens, UniProt P10721, V654A); assay: Kinome profiler screen; format: biochemical; details: at 20,000 nM inhibitor; kinase activity remaining
T7 construct: purchased Millipore KinaseProfiler

BV-2 microglial cells = assay: cells; format: cell-based, murine; details: BV-2 cells
MRCKβ = biological target: T8, MRCKβ (Homo sapiens, UniProt Q9Y5S2); assay: Kinome profiler screen; format: biochemical; details: at 20,000 nM inhibitor; kinase activity remaining
T8 construct: purchased Millipore KinaseProfiler

PAK6 = biological target: T9, PAK6 (Homo sapiens, UniProt Q9NQU5); assay: Kinome profiler screen; format: biochemical; details: at 20,000 nM inhibitor; kinase activity remaining
T9 construct: purchased Millipore KinaseProfiler

EGFR(L861Q) = biological target: T10, EGFR(L861Q) (Homo sapiens, UniProt P00533, L861Q); assay: Kinome profiler screen; format: biochemical; details: at 20,000 nM inhibitor; kinase activity remaining
T10 construct: purchased Millipore KinaseProfiler

CHK1 = biological target: T11, CHK1 (Homo sapiens, UniProt O14757); assay: Kinome profiler screen; format: biochemical; details: at 20,000 nM inhibitor; kinase activity remaining
T11 construct: purchased Millipore KinaseProfiler

Pim-3 = biological target: T12, Pim-3 (Homo sapiens, UniProt Q86V86); assay: Kinome profiler screen; format: biochemical; details: at 20,000 nM inhibitor; kinase activity remaining
T12 construct: purchased Millipore KinaseProfiler

[2] = biological target: T13, PI3 Kinase (p110α/p85α)(m) (Mus musculus, UniProt P42337); assay: Kinome profiler screen; format: biochemical; details: at 20,000 nM inhibitor; kinase activity remaining
T13 construct: purchased Millipore KinaseProfiler

NLK = biological target: T14, NLK (Homo sapiens, UniProt Q9UBE8); assay: biochemical
T14 sequence (Q9UBE8 1-527): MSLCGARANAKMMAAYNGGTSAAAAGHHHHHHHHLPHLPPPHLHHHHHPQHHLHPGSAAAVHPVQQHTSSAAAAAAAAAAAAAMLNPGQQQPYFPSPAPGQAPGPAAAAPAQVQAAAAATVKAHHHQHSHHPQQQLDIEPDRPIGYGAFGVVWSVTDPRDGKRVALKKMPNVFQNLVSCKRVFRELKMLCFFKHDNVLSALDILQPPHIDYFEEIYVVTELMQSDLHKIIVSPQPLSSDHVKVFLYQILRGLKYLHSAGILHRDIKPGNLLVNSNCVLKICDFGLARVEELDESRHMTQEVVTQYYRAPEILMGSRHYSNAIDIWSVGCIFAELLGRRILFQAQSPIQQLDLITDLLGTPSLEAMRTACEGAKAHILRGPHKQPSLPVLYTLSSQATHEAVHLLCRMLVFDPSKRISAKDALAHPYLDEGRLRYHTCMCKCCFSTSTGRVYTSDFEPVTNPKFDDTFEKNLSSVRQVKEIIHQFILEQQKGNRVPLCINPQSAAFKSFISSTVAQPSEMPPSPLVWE

EphA8 = biological target: T15, EphA8 (Homo sapiens, UniProt P29322); assay: Kinome profiler screen; format: biochemical; details: at 20,000 nM inhibitor; kinase activity remaining
T15 construct: purchased Millipore KinaseProfiler
T15 sequence (P29322 28-1005): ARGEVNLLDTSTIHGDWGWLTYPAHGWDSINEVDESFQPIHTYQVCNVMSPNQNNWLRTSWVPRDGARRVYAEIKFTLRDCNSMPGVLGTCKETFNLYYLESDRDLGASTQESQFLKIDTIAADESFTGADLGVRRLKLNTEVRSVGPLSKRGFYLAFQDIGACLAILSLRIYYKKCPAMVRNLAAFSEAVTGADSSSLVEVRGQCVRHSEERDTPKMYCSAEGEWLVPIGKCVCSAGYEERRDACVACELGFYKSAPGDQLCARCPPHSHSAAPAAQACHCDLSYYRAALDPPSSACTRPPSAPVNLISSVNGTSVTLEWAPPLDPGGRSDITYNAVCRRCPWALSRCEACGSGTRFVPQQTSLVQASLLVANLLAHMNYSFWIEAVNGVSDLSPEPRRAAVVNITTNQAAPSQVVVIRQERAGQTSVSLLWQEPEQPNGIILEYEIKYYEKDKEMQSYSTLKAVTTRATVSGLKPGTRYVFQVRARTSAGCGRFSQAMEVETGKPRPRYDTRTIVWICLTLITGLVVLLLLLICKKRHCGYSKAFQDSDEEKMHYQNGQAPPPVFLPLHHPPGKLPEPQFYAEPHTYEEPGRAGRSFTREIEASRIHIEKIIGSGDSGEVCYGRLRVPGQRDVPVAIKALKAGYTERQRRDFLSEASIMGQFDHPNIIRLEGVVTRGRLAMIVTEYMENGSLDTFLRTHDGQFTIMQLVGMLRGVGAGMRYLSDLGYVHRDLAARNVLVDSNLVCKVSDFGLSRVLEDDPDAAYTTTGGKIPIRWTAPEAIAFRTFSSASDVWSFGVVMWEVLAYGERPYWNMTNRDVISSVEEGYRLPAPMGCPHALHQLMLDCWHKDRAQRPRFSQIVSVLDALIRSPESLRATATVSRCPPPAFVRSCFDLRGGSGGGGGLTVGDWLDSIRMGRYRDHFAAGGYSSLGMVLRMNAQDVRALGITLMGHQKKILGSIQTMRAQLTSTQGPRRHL

CaMKIδ = biological target: T16, CaMKIδ (Homo sapiens, UniProt Q8IU85); assay: Kinome profiler screen; format: biochemical; details: at 20,000 nM inhibitor; kinase activity remaining
T16 construct: purchased Millipore KinaseProfiler

Met = biological target: T17, Met (Homo sapiens, UniProt P08581); assay: Kinome profiler screen; format: biochemical; details: at 20,000 nM inhibitor; kinase activity remaining
T17 construct: purchased Millipore KinaseProfiler

c-RAF = biological target: T18, c-RAF (Homo sapiens, UniProt P04049); assay: Kinome profiler screen; format: biochemical; details: for activity at 20 µM: at 20,000 nM inhibitor, kinase activity remaining
T18 construct: purchased Millipore
T18 sequence (P04049 whole entry): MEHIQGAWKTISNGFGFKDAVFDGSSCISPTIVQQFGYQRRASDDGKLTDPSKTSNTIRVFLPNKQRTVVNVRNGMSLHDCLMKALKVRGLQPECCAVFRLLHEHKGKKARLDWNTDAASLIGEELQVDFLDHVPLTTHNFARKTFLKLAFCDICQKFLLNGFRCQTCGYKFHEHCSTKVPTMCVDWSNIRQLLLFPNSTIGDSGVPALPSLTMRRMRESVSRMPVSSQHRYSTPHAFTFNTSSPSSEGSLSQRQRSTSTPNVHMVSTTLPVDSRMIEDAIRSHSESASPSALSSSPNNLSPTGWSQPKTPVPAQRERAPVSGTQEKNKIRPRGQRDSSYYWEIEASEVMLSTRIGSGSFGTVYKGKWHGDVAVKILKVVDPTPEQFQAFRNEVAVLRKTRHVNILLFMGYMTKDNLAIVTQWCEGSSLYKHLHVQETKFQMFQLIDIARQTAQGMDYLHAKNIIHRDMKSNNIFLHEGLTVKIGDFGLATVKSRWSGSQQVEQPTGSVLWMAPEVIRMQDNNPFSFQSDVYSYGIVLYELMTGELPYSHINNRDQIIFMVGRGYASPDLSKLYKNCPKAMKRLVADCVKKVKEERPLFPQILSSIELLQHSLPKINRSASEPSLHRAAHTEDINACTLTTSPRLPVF

Met(D1246N) = biological target: T19, Met(D1246N) (Homo sapiens, UniProt P08581, D1228N); assay: Kinome profiler screen; format: biochemical; details: at 20,000 nM inhibitor; kinase activity remaining
T19 construct: purchased Millipore KinaseProfiler

FGFR3 = biological target: T20, FGFR3 (Homo sapiens, UniProt P22607); assay: Kinome profiler screen; format: biochemical; details: at 20,000 nM inhibitor; kinase activity remaining
T20 construct: purchased Millipore KinaseProfiler

cSRC = biological target: T21, cSRC (Homo sapiens, UniProt P12931); assay: Kinome profiler screen; format: biochemical; details: at 20,000 nM inhibitor; kinase activity remaining
T21 construct: purchased Millipore KinaseProfiler

Fgr = biological target: T22, Fgr (Homo sapiens, UniProt P09769); assay: Kinome profiler screen; format: biochemical; details: at 20,000 nM inhibitor; kinase activity remaining
T22 construct: purchased Millipore KinaseProfiler

Aqueous solubility = format: physicochemical; details: for solubility at 24 h: water, 37 °C, thermodynamic from solid
Procedure: Aqueous solubility (logS) and chemical stability were determined as previously described. Briefly, solutions for aqueous solubility (log S) determination were made by gravimetric methods using a Sartorius AG (Germany) BP 211 D analytical balance. Dry borosilicate capillary tubes (Büchi, Switzerland) were weighed and various amounts of compound (ranging from 1.2–1.5 mg) or the hydrochloride hydrate form (ranging from 10–20 mg) were added to the tared tubes, then water added to create solutions ranging in concentrations from […]. Tubes containing the samples were mixed to ensure wetting and incubated at 37°C for 24 h. Aliquots were collected from each tube, centrifuged at 12,000 g-min, and analyzed by HPLC. Concentrations were calculated using area under the peak (260 nm) at the appropriate retention time relative to a standard curve obtained from serial dilutions of each purified compound. […]. The co-solvent was methanol, experimental pH range was 1.7–10.0, temperature was 22±2°C, ionic strength was 0.15 M KCl. Five titrations were used to calculate the pKa using the Yasuda-Shedlovsky technique. […].

PAR-1Bα = biological target: T23, PAR-1Bα (Homo sapiens, UniProt Q7KZI7); assay: Kinome profiler screen; format: biochemical; details: at 20,000 nM inhibitor; kinase activity remaining
T23 construct: purchased Millipore KinaseProfiler

DYRK2 = biological target: T24, DYRK2 (Homo sapiens, UniProt Q92630); assay: Kinome profiler screen; format: biochemical; details: at 20,000 nM inhibitor; kinase activity remaining
T24 construct: purchased Millipore KinaseProfiler

[3] = biological target: T25, PI3 Kinase (p110 β/p85α)(m) (Mus musculus, UniProt Q8BTI9); assay: Kinome profiler screen; format: biochemical; details: at 20,000 nM inhibitor; kinase activity remaining
T25 construct: purchased Millipore KinaseProfiler

HIPK3 = biological target: T26, HIPK3 (Homo sapiens, UniProt Q9H422); assay: Kinome profiler screen; format: biochemical; details: at 20,000 nM inhibitor; kinase activity remaining
T26 construct: purchased Millipore KinaseProfiler
T26 sequence (Q9H422 whole entry): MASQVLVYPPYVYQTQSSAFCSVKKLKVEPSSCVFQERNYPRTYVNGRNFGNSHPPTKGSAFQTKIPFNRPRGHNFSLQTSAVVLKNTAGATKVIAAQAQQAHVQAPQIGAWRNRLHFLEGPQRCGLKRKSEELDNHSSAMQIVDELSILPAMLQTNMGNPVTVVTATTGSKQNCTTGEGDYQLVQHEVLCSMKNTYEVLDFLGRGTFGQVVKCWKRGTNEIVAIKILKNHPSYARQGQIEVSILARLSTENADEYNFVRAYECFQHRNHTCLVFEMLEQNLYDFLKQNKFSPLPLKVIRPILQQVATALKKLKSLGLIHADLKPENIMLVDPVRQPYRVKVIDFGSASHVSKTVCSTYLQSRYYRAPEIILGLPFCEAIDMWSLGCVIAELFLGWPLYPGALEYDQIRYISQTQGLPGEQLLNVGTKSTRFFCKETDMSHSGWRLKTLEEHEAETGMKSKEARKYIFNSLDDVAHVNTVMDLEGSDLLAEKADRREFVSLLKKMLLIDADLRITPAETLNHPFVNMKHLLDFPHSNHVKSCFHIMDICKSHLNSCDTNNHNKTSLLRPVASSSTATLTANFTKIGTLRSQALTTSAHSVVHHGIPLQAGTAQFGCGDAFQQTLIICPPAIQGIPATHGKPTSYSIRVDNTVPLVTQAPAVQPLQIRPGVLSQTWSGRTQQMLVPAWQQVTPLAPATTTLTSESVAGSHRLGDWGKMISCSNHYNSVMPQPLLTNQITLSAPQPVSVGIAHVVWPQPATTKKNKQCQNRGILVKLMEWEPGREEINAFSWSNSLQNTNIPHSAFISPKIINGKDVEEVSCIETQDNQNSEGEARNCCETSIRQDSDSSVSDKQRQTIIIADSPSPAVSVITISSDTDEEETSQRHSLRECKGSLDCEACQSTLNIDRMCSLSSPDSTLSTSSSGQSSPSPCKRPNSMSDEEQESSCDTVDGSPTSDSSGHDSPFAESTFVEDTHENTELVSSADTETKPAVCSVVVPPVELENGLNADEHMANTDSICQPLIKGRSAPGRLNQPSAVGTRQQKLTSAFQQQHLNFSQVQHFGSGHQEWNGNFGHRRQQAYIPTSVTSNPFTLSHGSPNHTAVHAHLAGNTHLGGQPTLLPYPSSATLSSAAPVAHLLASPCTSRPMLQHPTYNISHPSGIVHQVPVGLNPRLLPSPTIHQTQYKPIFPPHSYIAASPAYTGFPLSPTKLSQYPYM

MAPKAP-K3 = biological target: T27, MAPKAP-K3 (Homo sapiens, UniProt Q16644); assay: Kinome profiler screen; format: biochemical; details: at 20,000 nM inhibitor; kinase activity remaining
T27 construct: purchased Millipore KinaseProfiler
T27 sequence (Q16644 whole entry): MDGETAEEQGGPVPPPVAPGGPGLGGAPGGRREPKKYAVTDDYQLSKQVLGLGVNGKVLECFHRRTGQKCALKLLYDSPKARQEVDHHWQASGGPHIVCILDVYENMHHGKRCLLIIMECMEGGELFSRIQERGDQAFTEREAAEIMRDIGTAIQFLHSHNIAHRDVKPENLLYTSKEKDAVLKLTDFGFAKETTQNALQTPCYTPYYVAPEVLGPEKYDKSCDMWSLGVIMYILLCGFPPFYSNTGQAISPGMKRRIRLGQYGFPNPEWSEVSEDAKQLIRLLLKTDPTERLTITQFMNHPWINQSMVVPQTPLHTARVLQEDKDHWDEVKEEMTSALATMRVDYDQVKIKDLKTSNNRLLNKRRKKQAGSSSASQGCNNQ

FGFR4 = biological target: T28, FGFR4 (Homo sapiens, UniProt P22455); assay: Kinome profiler screen; format: biochemical; details: at 20,000 nM inhibitor; kinase activity remaining
T28 construct: purchased Millipore KinaseProfiler

T1 sequence (P29317 24-976): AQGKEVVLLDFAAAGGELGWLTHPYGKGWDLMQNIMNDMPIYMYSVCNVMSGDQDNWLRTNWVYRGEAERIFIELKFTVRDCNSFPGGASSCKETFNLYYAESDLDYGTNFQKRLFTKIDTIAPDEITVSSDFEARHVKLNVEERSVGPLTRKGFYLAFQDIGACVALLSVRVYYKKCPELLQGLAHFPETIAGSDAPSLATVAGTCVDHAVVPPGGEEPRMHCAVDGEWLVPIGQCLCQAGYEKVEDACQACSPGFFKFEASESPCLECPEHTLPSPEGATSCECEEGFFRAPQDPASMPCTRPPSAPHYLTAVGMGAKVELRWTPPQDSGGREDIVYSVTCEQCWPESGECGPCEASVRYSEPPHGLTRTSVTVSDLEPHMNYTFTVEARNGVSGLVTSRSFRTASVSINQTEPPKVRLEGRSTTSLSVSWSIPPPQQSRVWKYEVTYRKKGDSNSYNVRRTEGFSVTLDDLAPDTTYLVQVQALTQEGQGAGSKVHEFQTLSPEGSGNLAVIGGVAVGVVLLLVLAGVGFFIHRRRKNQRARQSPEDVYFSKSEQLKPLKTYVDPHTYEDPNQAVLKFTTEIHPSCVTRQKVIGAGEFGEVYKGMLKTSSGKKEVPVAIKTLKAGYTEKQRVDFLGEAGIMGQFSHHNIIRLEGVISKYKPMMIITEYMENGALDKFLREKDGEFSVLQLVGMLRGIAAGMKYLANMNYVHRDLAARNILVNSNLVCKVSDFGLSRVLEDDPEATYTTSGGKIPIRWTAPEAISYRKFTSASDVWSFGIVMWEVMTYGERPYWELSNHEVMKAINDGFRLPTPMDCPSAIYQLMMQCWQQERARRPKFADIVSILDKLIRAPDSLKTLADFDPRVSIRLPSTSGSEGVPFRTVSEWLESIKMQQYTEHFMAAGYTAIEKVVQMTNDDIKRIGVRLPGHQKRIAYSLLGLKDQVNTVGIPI

Structure (SMILES)	activity at 20 µM (EphA2) [%]	activity at 20 µM [1] [%]	activity at 20 µM (GSK3α) [%]	activity at 20 µM (JAK2) [%]	activity at 20 µM (PKCθ) [%]	activity at 20 µM (VRK2) [%]	activity at 20 µM (cKit(V654A)) [%]	LPS-induced IL-1β production (BV-2 microglial cells)	activity at 20 µM (MRCKβ) [%]	activity at 20 µM (PAK6) [%]	activity at 20 µM (EGFR(L861Q)) [%]	activity at 20 µM (CHK1) [%]	activity at 20 µM (Pim-3) [%]	activity at 20 µM [2] [%]	IC50 (NLK) [nM]	activity at 20 µM (EphA8) [%]	activity at 20 µM (CaMKIδ) [%]	activity at 20 µM (Met) [%]	activity at 20 µM (c-RAF) [%]	activity at 20 µM (Met(D1246N)) [%]	other results
CN(C)c1cc(-c2ccncc2)c(-c2cccc3ccccc23)nn1 [MW181, N,N-dimethyl-6-(naphthalen-1-yl)-5-(pyridin-4-yl)pyridazin-3-amine]	91	101	95	111	98	86	83	inhibited LPS-induced IL-1β production in a concentration-dependent manner	115	101	56	115	106	102	206	91	103	112	70	104	activity at 20 µM (FGFR3): 118%; activity at 20 µM (cSRC): 101%; activity at 20 µM (Fgr): 90%; Aqueous Solubility (37ºC), HCl hydrate (Aqueous solubility; hydrochloride hydrate form, 24 h): ~800 mM; solubility at 24 h (Aqueous solubility; compound (not the salt), 24 h, read-out: Aqueous Solubility (37ºC)): 0.205 mM; solubility at 24 h (Aqueous solubility; hydrochloride hydrate form, 24 h, read-out: Aqueous Solubility (37ºC), HCl hydrate): 840 mM (≈ 274 mg/mL); activity at 20 µM (PAR-1Bα): 106%; activity at 20 µM (DYRK2): 109%; activity at 20 µM [3]: 101%; activity at 20 µM (HIPK3): 95%; activity at 20 µM (MAPKAP-K3): 99%; activity at 20 µM (FGFR4): 98%
CN(C)c1cc(-c2ccncc2)c(-c2ccc3ccccc3c2)nn1 [MW108, N, N-dimethyl-6-(naphthalen-2-yl)-5-(pyridin-4-yl)pyridazin-3-amine]	83	100	90	98	107	83	106	inhibited LPS-induced IL-1β production in a concentration-dependent manner	99	99	49	94	105	101	1210	95	97	118	27	80	IC50 (BV-2 microglial cells; Mus musculus, 100 ng/ml LPS, 18 hrs, read-out: IC50, inhibition of IL-1β overproduction): 610 ± 20 nM; activity at 20 µM (NLK): 20%; IC50 (c-RAF): 9120 nM; activity at 20 µM (FGFR3): 86%; activity at 20 µM (cSRC): 125%; activity at 20 µM (Fgr): 92%; solubility at 24 h (Aqueous solubility; Aqueous Solubility (37 °C)): 0.058 mM (≈ 0.0189 mg/mL); solubility at 24 h (Aqueous solubility; Aqueous Solubility (37 °C), HCl hydrate): 370 mM (≈ 121 mg/mL); Aqueous Solubility (37ºC), HCl hydrate (Aqueous solubility; 24 h): ~400 mM; activity at 20 µM (PAR-1Bα): 97%; activity at 20 µM (DYRK2): 108%; activity at 20 µM [3]: 99%; activity at 20 µM (HIPK3): 104%; activity at 20 µM (MAPKAP-K3): 102%; activity at 20 µM (FGFR4): 89%
